Results reported in US20240299334A1, “PHARMACEUTICAL COMPOSITION OF NAPHTHALENE DERIVATIVES AS MULTI-TARGETED THERAPEUTIC AGENTS FOR THE TREATMENT OF ALZHEIMER'S DISEASE” (CENTRO DE NEUROCIENCIAS DE CUBA, CNEURO, priority 2020, published 2024).

What was measured:
SH-SY5Y cells = test: Neuroprotection against glutamate-induced excitotoxic damage (MTT); conditions: 7.5 and 15 μmol/L; 24 h pre-treatment, then 60 mmol/L glutamate 24 h; p<0.05
Protocol: In addition, gentamicin (100 μg/mL) was added, then called complete medium (CM). […] The medium was changed every two days and the cells were subcultured every five days by trypsinization at a density of 4-5×10^6 cells/75 cm^2 flask for experimental work and/or subculture of a new generation of cells for later use.
Once the cell density was known, they were seeded in a 96-well culture plate (200 μL in each well) at a concentration of 80×10^4 cells/well.
Cell viability. MTT assays: Cell viability was measured through formazan blue products obtained from the enzymatic transformation of MTT (3-(4,5-dimethyl-2-thiazolyl)-2,5-diphenyl-2Htetrazoliumbromide) by mitochondrial dehydrogenases, which are active only in viable cells. […] Then 100 μL of isobutylalcohol (SDS 10%, 2-butanol 50%, 0.25 μL HCl 2 mmol/L) was added to each well to solubilize the formazan crystals, and the optical density of each well was measured before 30 minutes at 570 nm in a Clariostar spectrophotometer (BMG Labtech). The correction of the OD values was carried out at 690 nm. Three replications were carried out for each experiment. The results were expressed as the percentage of optical density of each experimental variant in relation to the Optical density obtained for the group of cells not treated with glutamate.

[1] = test system: memory loss induced by an acute administration of scopolamine (ESC); test: Y-maze, short-term spatial memory, acute scopolamine (ESC) model; assay type: in vivo, mice
Protocol: (§1) Young male OF-1 mice (20-25 g), supplied by the National Center for the Laboratory Animals Production (CENPALAB, Cuba), were used. Before the experiment, the animals were adapted for seven days to laboratory conditions (controlled temperature 25±2° C., relative humidity 60±10% and light/dark cycles of 12 h). During this period, and during the experiment, the animals received ad libitum water and a standard diet for rodents supplied by CENPALAB. All procedures were carried out in accordance with the European Commission guidelines for the use and care of laboratory animals and approved by the Committee for the Care of Research Animals. The minimum number of animals and duration of observations required to obtain consistent data was used.
At the end of the adaptation period, the animals were randomly distributed according to their body weights in 5 experimental groups of 12 animals per group. Scopolamine hydrobromohydrate (ESC, Sigma Aldrich) was used to induce cognitive deficit, which was dissolved in physiological saline and administered intraperitoneally (ip) at a dose of 1.5 mg/kg, 30 minutes before the test (Miranda H F et al. in. J. Biomed. Sci., 2014 21 (1): 62-62). The doses of compound 3 used were 0.1, 1, 10 and 20 mg/kg of body weight. The compound was formulated using carboxymethyl cellulose (CMC). The administration scheme was designed as follows:
Group 1 (negative control) with normal cognitive function. Two administrations with an interval of 30 minutes with vehicle (5% CMC) by oral route and saline solution by i.p. route, respectively.
Group 2 (positive control) with cognitive dysfunction. Two administrations with an interval of 30 minutes, the first with vehicle (5% CMC), the second with ESC 1 mg/kg.
Group 3, 4, 5 and 6 treated with 3 (0.1, 1, 10 and 20 mg/kg). Two administrations with an interval of 30 minutes, the first with 3 at the dose corresponding to each group, the second with ESC 1 mg/kg. The behavioral evaluation was carried out 30 minutes after this second administration.
The study of short-term spatial memory was carried out through the study of novel spatial preference, using the Y-maze behavioral paradigm (40 cm long×9 cm wide×16 cm high) with extra-labyrinthine tracks around of the maze. The test consisted of two trials separated by an interval of 2 hours. In the first training test (acquisition), the mice were placed in the center of the maze and facing the end of one of the arms whose selection was random. After being positioned, they were allowed to explore the maze for 10 minutes with one of the arms closed (novel arm). At the end of this test, the mice were returned to their original cage until the second test (recovery), during which they could freely explore the three arms of the maze for 5 minutes. The total residence time (exploration) in each arm was measured and analyzed from video recordings. The entrance to the arm was defined as the entrance of the four legs of the animal in said arm. The residence time (sec) in each arm during the recovery test of the learned task was used for the statistical analysis. The maze was cleaned with 70% ethanol between runs. All mice were transported to the behavioral testing room in their home cages at least 1 day prior to testing. The experiments were carried out between 8:00 am and 12:30 pm.
All data are expressed as the mean±standard error of the mean (SEM). The Morris water maze data was analyzed in two ways. Escape latencies in the visible platform training phase were analyzed using a two-factor ANOVA (treatment×trial). For the study of long-term memory, the last escape latency value of the training phase with the visible platform (D1 V4) and the first value of the test with the hidden platform performed 24 h later (D2T1) were used. Mice with intact long-term memory capacity should quickly reach the hidden platform in the first test. A scoring system was generated with the difference D2T1−D1 V4 and with the ratio D2T1/D1V4. […]

[2] = test system: memory loss induced by an acute administration of scopolamine (ESC); test: Morris water maze, two-day protocol, acute ESC model; assay type: in vivo, mice; conditions: long-term spatial memory
Protocol: as §1
At the end of the adaptation period, the animals were randomly distributed according to their body weights in 5 experimental groups of 12 animals per group. […]
The experience was carried out for two days; a first day of training and a second day of testing. […] 24 hours after the last visible platform test (D2), the animals were evaluated in a series of three tests with the hidden platform (T1-T3). […]
All data are expressed as the mean±standard error of the mean (SEM). The Morris water maze data was analyzed in two ways. Escape latencies in the visible platform training phase were analyzed using a two-factor ANOVA (treatment×trial). […]

Compound: CSC(=S)NCCNC(=O)CCC(=O)Nc1cccc2ccccc12 [compound 3, methyl(2-{[4-(1-naphthylamino)-4-oxobutanoyl]amino}ethyl)dithiocarbamate]
- neuronal death generated by glutamate (MTT viability) (SH-SY5Y cells): significantly decreased
- dose with the greatest effect ([1]; Y-maze, acute ESC model): 1 mg/kg
- residence (exploration) time in the novel arm ([1]; compound 3 at doses higher than 1 mg/kg (10, 20 mg/kg)): a decrease in this parameter was observed
- amnesia induced by ESC, preference for novel arm in Y-maze ([1]; compound 3 single doses 0.1 mg/kg to 10 mg/kg, 30 min before ESC, p<0.001): significantly reversed
- residence (exploration) time in the novel arm ([1]; compound 3 up to the 1 mg/kg dose, p<0.01 vs ESC): gradual increase in the exploration time, significantly different from the ESC group
- difference and ratio of escape latency, last visible-platform test vs first hidden-platform test [2]: differs significantly from the group with ESC
